Consider six compounds from ChEMBL document CHEMBL1201862, “PubChem BioAssay data set” (2004).

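1) Cells in 96-well plates. 2) Compound, 48 h, 5 concentrations. 3) Linear interpolation between surrounding doses. 4) Unreached endpoint = highest concentration. GI50 = concentration required for 50% inhibition of growth.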 The source made the active and inactive calls. Cut-off read from the data, not from the text of the source: active = GI50 up to about 1.1 µM and inactive = higher.

Test systems include NCI-H460; A549; MDA-MB-435; SF-268; SK-MEL-28; HT-29; HL-60; RXF 393; OVCAR-5; ACHN; IGROV-1; MDA-MB-231; T47D; BT-549; M14; SR; NCI-H522.
Assay in all cases: NCI-60 cell line screen, 48 h

Take `COc1ccc2c3c1OC1C(OC)(OC)CC4(C=C2)CN(C)CCC314` (stereo not drawn): the GI50 in the assay on NCI-H460, with A549, in the assay on MDA-MB-435, in the assay with SF-268, with SK-MEL-28 and in the assay with HT-29 was > 100 µM (inactive) each time. In addition, the GI50 in the assay on HL-60 was 20.3 µM (inactive); with RXF 393 it was > 100 µM (inactive); in the assay on OVCAR-5, > 100 µM (inactive); in the assay on ACHN, > 100 µM (inactive); in the assay on IGROV-1, > 100 µM (inactive); in the assay on MDA-MB-231, > 100 µM (inactive). For the same compound, the GI50 in the assay on T47D and with BT-549 was > 100 µM (inactive) in each case.

On to `CN1CCN(/C(N)=C(\C#N)C(=O)Nc2ccc(Cl)cc2)CC1`, for which the GI50 is 74.6 µM (inactive) in the assay on NCI-H460; > 100 µM (inactive) with A549; 37.5 µM (inactive) with MDA-MB-435; 46.6 µM (inactive) in the assay with SK-MEL-28; > 100 µM (inactive) in the assay with HT-29; 30.6 µM (inactive) in the assay with M14. The GI50 in the assay on OVCAR-5 is > 100 µM (inactive); in the assay with ACHN, > 100 µM (inactive); in the assay on IGROV-1, 99.1 µM (inactive); in the assay on SR, 35.1 µM (inactive); in the assay on T47D, > 100 µM (inactive); with BT-549 it was > 100 µM (inactive).

Regarding `CC(=O)c1c(O)ccc2c1c1c(n2C)C(=O)c2ccccc2C1=O`, the GI50 in the assay on NCI-H460 is 3.21 µM (inactive); with A549 it was 5.66 µM (inactive); with SF-268, 1.86 µM (inactive); in the assay with SK-MEL-28, 2.99 µM (inactive); in the assay on HT-29, > 100 µM (inactive); in the assay with HL-60 it was > 100 µM (inactive). Moreover, the GI50 was 3.84 µM (inactive) in the assay with RXF 393; > 100 µM (inactive) in the assay on OVCAR-5; 1.82 µM (inactive) in the assay on IGROV-1; 2.52 µM (inactive) in the assay with MDA-MB-231; 2.25 µM (inactive) with SR; 1.45 µM (inactive) in the assay with T47D. For the same compound, the GI50 with BT-549 was > 100 µM (inactive).

As to `Cn1cnc(C(N)=[Se])c1N`, the GI50 in the assay on NCI-H460 was 0.183 µM (active); with A549, 1.71 µM (inactive); in the assay with MDA-MB-435, 5.26 µM (inactive); in the assay with SF-268, 1.95 µM (inactive); in the assay on SK-MEL-28, 3.39 µM (inactive); with HT-29, 5.35 µM (inactive). For the same compound, the GI50 with RXF 393 was 1.6 µM (inactive); in the assay with M14 it was 4.44 µM (inactive); in the assay with NCI-H522, 2.19 µM (inactive); in the assay with OVCAR-5, 3.56 µM (inactive); with ACHN, 2.6 µM (inactive); in the assay on IGROV-1, 1.33 µM (inactive). The GI50 in the assay with MDA-MB-231 was 2.07 µM (inactive); in the assay on T47D, 3.65 µM (inactive); with BT-549, 1.13 µM (inactive).

As to `CC(C)=NN/C(=N\c1ccc(Cl)cc1)NS(=O)(=O)c1ccc(C)cc1`, the GI50 is 57.8 µM (inactive) in the assay on NCI-H460; 62.4 µM (inactive) with A549; 92.9 µM (inactive) in the assay with MDA-MB-435; 60 µM (inactive) in the assay on SF-268; 85.5 µM (inactive) in the assay on SK-MEL-28; > 100 µM (inactive) in the assay with HT-29. The GI50 was 97.5 µM (inactive) in the assay on HL-60; > 100 µM (inactive) in the assay with M14; 56.8 µM (inactive) in the assay on NCI-H522; > 100 µM (inactive) in the assay on OVCAR-5; 40.5 µM (inactive) in the assay with ACHN; 77.4 µM (inactive) in the assay with IGROV-1. Also, the GI50 with MDA-MB-231 was 73.1 µM (inactive); with T47D, 23.8 µM (inactive); in the assay on BT-549, > 100 µM (inactive).

Take `O=C(N/N=C/c1ccco1)c1cc(I)cc(I)c1O`: the GI50 with A549 was 31.9 µM (inactive); in the assay on MDA-MB-435, 16.9 µM (inactive); in the assay on SF-268, > 50 µM (inactive); in the assay on SK-MEL-28, 28.2 µM (inactive); in the assay on HT-29, 6.41 µM (inactive); with HL-60 it was 10.5 µM (inactive). The GI50 is 20.7 µM (inactive) in the assay with RXF 393; 8.24 µM (inactive) in the assay on M14; 27.2 µM (inactive) in the assay on NCI-H522; 7.85 µM (inactive) in the assay on OVCAR-5; 22 µM (inactive) with ACHN; 15.8 µM (inactive) in the assay with IGROV-1. In addition, the figures for the GI50 with T47D and with BT-549 were 26 µM (inactive) and > 50 µM (inactive), respectively.
